Experiments:
human sdLDL = assay: Copper-induced sdLDL oxidation, TBARS after 2 hr (Example 6); assay type: biochemical; conditions: 10 μM CuSO4, vs vehicle
Procedure: Venous blood was collected from healthy volunteers into vacutainer tubes containing sodium EDTA. Plasma was separated by centrifugation at 3000 g for 25 min at 4° C. and adjusted to a density of 1.020 g/mL with KBr. Triglyceride-rich lipoproteins (TGRL) and LDL fractions were then isolated by sequential centrifugation at 70,000 rpm at 4° C. in a Beckman LE-80 ultracentrifuge using a Beckman 50.4Ti rotor (Beckman Coulter, Inc., Fullerton, Calif.). The TGRL fraction (with a relative density of <1.020) was aspirated from the top of the centrifugate and discarded, leaving an LDL-enriched infranate (with a relative density of 1.020 to 1.063). The plasma LDL fraction was further fractionated into LDL1, LDL2, LDL3, and LDL4 (sdLDL) subfractions with relative densities of 1.020 to 1.035, 1.035 to 1.050, 1.050 to 1.063, and 1.063 to 1.075, respectively. The sdLDL subfraction was retained for additional experimentation. Plasma and lipoprotein fractions were maintained at 4° C. and protected from excessive exposure to light. Prior to oxidation experiments, EDTA was removed from the lipoprotein fraction using PD-10 desalting columns (GE Healthcare, Piscataway N.J.). After equilibration of the column with phosphate buffered saline (PBS), 2.5 mL of the lipoprotein fraction was loaded on the column and the flow-through discarded. The lipoprotein was then eluted with 3 mL of PBS. The LDL fractions were further diluted with PBS to obtain a 100 μg/mL apoB100 concentration.
LDL and sdLDL subfractions (0.6 mL each) were incubated with either 10 μL vehicle (ethanol) or 10 μL drug stock solution for 30 min to 1 hr at 37° C. Oxidation was initiated by the addition of 10 μM CuSO4. After 2 hr, 100 μL aliquots were removed from each subfraction and combined with 1.0 mL thiobarbituric acid (0.5%), 10 μL trichloroacetic acid (5%), 10 μL BHT (5 mg/mL in methanol), and 10 μL EDTA (5 mM). […]. Sample TBARS concentrations were determined spectrophotometrically by measuring sample absorbances against a standard curve derived from the hydrolysis of 1,1,3,3-tetramethoxypropane.

sdLDL = assay: Copper-induced sdLDL oxidation (Example 12); assay type: biochemical, human; conditions: 10.0 μM, copper-induced oxidation 1 hour, vs vehicle

CC/C=C\C/C=C\C/C=C\C/C=C\C/C=C\CCCC(=O)O [EPA, cis-5,8,11,14,17-eicosapentaenoic acid]
reduction of TBARS levels (human sdLDL; 1.0 μM): 13%
reduction of TBARS levels (human sdLDL; 10.0 μM): 57%
reduction of sdLDL oxidation (sdLDL): > 90%
